From ChEMBL document CHEMBL5625206, “Design, synthesis, and evaluation of novel pleuromutilin aryl acrylate derivatives as promising broad-spectrum antibiotics especially for combatting multi-drug resistant gram-negative bacteria” (Eur J Med Chem, 2023)
≈ marks a conversion by molar mass, not a printed value. Calls of active or inactive are those of the source. The rule behind the calls is not given here.

Assays:
[1] = Toxicity in fasted male Sprague-Dawley rat assessed as relative spleen weight ratio at 148 mg/kg, IG measured for 14 days (reference value: 0.246 +/- 0.037); assay type: organism-based; details: in vivo, po, 336 h, time 14 day
[2] = test system: Escherichia coli; experiment: Induction of extracellular electrical conductivity in Escherichia coli ATCC 25922 at 2 times MIC incubated for 8 hrs relative to control; assay type: functional
[3] = Cytotoxicity against HEK293 cells incubated for 24 hrs by CCK8 assay; assay type: toxicity, cell-based; details: human
[4] = test system: Staphylococcus aureus; experiment: Depolarization of cell membrane in methicillin-resistant Staphylococcus aureus ATCC 33591 by DiBAC4(3) probe based analysis; assay type: functional, organism-based
[5] = Toxicity in fasted female Sprague-Dawley rat assessed as animal growth rate at 224 mg/kg, IG measured for 14 days (reference value: 29.85 +/- 4.97 g); assay type: organism-based; details: in vivo, po, 336 h, time 14 day
[6] = Toxicity in fasted male Sprague-Dawley rat assessed as relative testis weight ratio at 100 mg/kg, IG measured for 14 days (reference value: 0.993 +/- 0.052); assay type: organism-based; details: in vivo, po, 336 h, time 14 day
[7] = test system: Escherichia coli; experiment: Induction of cell damage in Escherichia coli ATCC 25922 assessed as decrease in intracellular ATP concentration at 2 times MIC incubated for 30 mins by fluorescence based analysis relative to control; assay type: functional; set-up: scale not given: the % may be the effect or the level left; details: 0.5 h
[8] = Toxicity in neutropenic Kunming mouse model infected with methicillin-resistant Staphylococcus aureus ATCC 33591 assessed as survival rate at 5 mg/kg, ip measured after 7 days relative to control; assay type: organism-based; details: in vivo, 168 h, time 7 day
[9] = Toxicity in fasted male Sprague-Dawley rat assessed as body weight at 224 mg/kg, IG measured after 14 days (reference value: 311.2 +/- 13.6 g); assay type: organism-based; details: in vivo, po, 336 h, time 14 day
[10] = test system: Staphylococcus aureus; experiment: Antibacterial activity against methicillin-resistant Staphylococcus aureus ATCC 33591 infected in neutropenic Kunming mouse model assessed as restoration of infection- induced change in cell morphology in lung at 20 mg/kg, ip measured after 7 days; assay type: functional, organism-based; details: time 7.0 day
[11] = test system: Staphylococcus aureus; experiment: Inhibition of biofilm formation of methicillin-resistant Staphylococcus aureus ATCC 33591 incubated for 24 hrs by crystal violet staining based analysis; assay type: functional, organism-based
[12] = test system: Staphylococcus aureus; experiment: Antibacterial activity against Staphylococcus aureus ATCC 25923 assessed as bacterial growth inhibition incubated for 24 hrs by CLSI based broth microdilution method; assay type: functional
[13] = Toxicity in fasted male Sprague-Dawley rat assessed as relative kidney weight ratio at 331 mg/kg, IG measured for 14 days (reference value: 0.820 +/- 0.072); assay type: organism-based; details: in vivo, po, 336 h, time 14 day
[14] = test system: Escherichia coli; experiment: Induction of extracellular electrical conductivity in Escherichia coli ATCC 25922 at MIC incubated for 6 hrs; assay type: functional, organism-based
[15] = Toxicity in fasted female Sprague-Dawley rat assessed as animal growth rate at 331 mg/kg, IG measured for 14 days (reference value: 29.85 +/- 4.97 g); assay type: organism-based; details: in vivo, po, 336 h, time 14 day
[16] = test system: Staphylococcus aureus; experiment: Bactericidal activity against methicillin-resistant Staphylococcus aureus ATCC 33591 incubated for 24 hrs by time kill assay; assay type: functional, organism-based
[17] = test system: Staphylococcus aureus; experiment: Antibacterial activity against methicillin-resistant Staphylococcus aureus ATCC 33591 infected in neutropenic Kunming mouse model assessed as reduction in infection-induced inflammatory cell infiltration in kidney at 20 mg/kg, ip measured after 7 days; assay type: functional, organism-based; details: time 7.0 day
[18] = MRT in fasted Sprague-Dawley rat at 1 mg/kg, iv by LC-MS/MS analysis; assay type: ADME, organism-based; details: in vivo
[19] = test system: Escherichia coli; experiment: Depolarization of cell membrane in Escherichia coli ATCC 25922 by DiBAC4(3) probe based analysis; assay type: functional, organism-based
[20] = Toxicity in fasted male Sprague-Dawley rat assessed as body weight at 148 mg/kg, IG measured after 14 days (reference value: 311.2 +/- 13.6 g); assay type: organism-based; details: in vivo, po, 336 h, time 14 day
[21] = test system: Staphylococcus aureus; experiment: Bactericidal activity against methicillin-resistant Staphylococcus aureus ATCC 33591 at MIC incubated for 24 hrs by time kill assay relative to control; assay type: functional
[22] = Toxicity in fasted female Sprague-Dawley rat assessed as relative spleen weight ratio at 500 mg/kg, IG measured for 14 days (reference value: 0.223 +/- 0.019); assay type: organism-based; details: in vivo, po, 336 h, time 14 day
[23] = Toxicity in fasted male Sprague-Dawley rat assessed as animal growth rate at 500 mg/kg, IG measured for 14 days (reference value: 46.53 +/- 3.19 g); assay type: organism-based; details: in vivo, po, 336 h, time 14 day
[24] = Toxicity in fasted female Sprague-Dawley rat assessed as relative liver weight ratio at 100 mg/kg, IG measured for 14 days (reference value: 3.199 +/- 0.062); assay type: organism-based; details: in vivo, po, 336 h, time 14 day
[25] = Toxicity in fasted female Sprague-Dawley rat assessed as relative ovary weight ratio at 224 mg/kg, IG measured for 14 days (reference value: 0.061 +/- 0.010); assay type: organism-based; details: in vivo, po, 336 h, time 14 day
[26] = Toxicity in fasted male Sprague-Dawley rat assessed as body weight at 500 mg/kg, IG measured on same day (reference value: 212.7 +/- 13.2 g); assay type: organism-based; details: in vivo, po
[27] = Toxicity in fasted male Sprague-Dawley rat assessed as body weight at 331 mg/kg, IG measured on same day (reference value: 212.7 +/- 13.2 g); assay type: organism-based; details: in vivo, po
[28] = Toxicity in fasted male Sprague-Dawley rat assessed as body weight at 100 mg/kg, IG measured after 14 days (reference value: 311.2 +/- 13.6 g); assay type: organism-based; details: in vivo, po, 336 h, time 14 day
[29] = test system: Staphylococcus aureus; experiment: Antibacterial activity against methicillin-resistant Staphylococcus aureus ATCC 33591 infected in neutropenic Kunming mouse model assessed as reduction in infection-induced inflammatory cell infiltration in lung at 20 mg/kg, ip measured after 7 days; assay type: functional, organism-based; details: time 7.0 day
[30] = Toxicity in fasted female Sprague-Dawley rat assessed as relative ovary weight ratio at 100 mg/kg, IG measured for 14 days (reference value: 0.061 +/- 0.010); assay type: organism-based; details: in vivo, po, 336 h, time 14 day
[31] = test system: Staphylococcus aureus; experiment: Antibacterial activity against methicillin-resistant Staphylococcus aureus ATCC 33591 infected in neutropenic Kunming mouse model assessed as bacterial load reduction in liver at 10 to 20 mg/kg, ip measured after 2 days; assay type: functional, organism-based; details: dose 10-20 mg/kg, time 2.0 day
[32] = Toxicity in fasted female Sprague-Dawley rat assessed as body weight at 224 mg/kg, IG measured after 14 days (reference value: 214.3 +/- 9.8 g); assay type: organism-based; details: in vivo, po, 336 h, time 14 day
[33] = Toxicity in fasted male Sprague-Dawley rat assessed as animal growth rate at 224 mg/kg, IG measured for 14 days (reference value: 46.53 +/- 3.19 g); assay type: organism-based; details: in vivo, po, 336 h, time 14 day
[34] = test system: Escherichia coli; experiment: Disruption of cell membrane integrity in Escherichia coli ATCC 25922 at 4 times MIC incubated for 4 hrs by FESEM analysis; assay type: functional, organism-based
[35] = Toxicity in fasted female Sprague-Dawley rat assessed as body weight at 500 mg/kg, IG measured after 7 days (reference value: 188.2 +/- 9.2 g); assay type: organism-based; details: in vivo, po, 168 h, time 7 day
[36] = test system: Mycoplasmoides gallisepticum; experiment: Anti-mycoplasma activity against Mycoplasma gallisepticum MG-R-NCTC10115 assessed as bacterial growth inhibition incubated for 7 days; assay type: functional; details: MG-R-NCTC10115, 168 h, time 7 day
[37] = Toxicity in fasted female Sprague-Dawley rat assessed as animal growth rate at 148 mg/kg, IG measured for 14 days (reference value: 29.85 +/- 4.97 g); assay type: organism-based; details: in vivo, po, 336 h, time 14 day

## C=C[C@]1(C)C[C@@H](OC(=O)COC(=O)/C=C/c2ccc(N(C)C)cc2)[C@]2(C)[C@H](C)CC[C@]3(CCC(=O)[C@H]32)[C@@H](C)[C@@H]1O
[1]
  Ratio: 0.227
[2]
  Activity: 20.78%
[3]
  CC50 at 24 h: 34.6 µM
[4]
  Activity: Dose-Dependent Effect
[5]
  Activity: 28.96%
[6]
  Ratio: 1.048
[7]
  Activity: 67.87%
[8]
  Survival: 30%
[9]
  Activity: 304.9 g
[10]
  Activity: Active
[11]
  inhibition: Dose-Dependent Effect
[12]
  MIC: 1 µg/mL (≈ 1.81 µM)
[13]
  Ratio: 0.831
[14]
  Activity: Active
[15]
  Activity: 27.6%
[16]
  Activity: Dose-Dependent Effect
[17]
  Activity: Active
[18]
  MRT: 42.6 min
[19]
  Activity: Dose-Dependent Effect
[20]
  Activity: 303.6 g
[21]
  Activity: 48.55%
[22]
  Ratio: 0.23
[23]
  Activity: 43.65%
[24]
  Ratio: 3.195
[25]
  Ratio: 0.073
[26]
  Activity: 208 g
[27]
  Activity: 217.4 g
[28]
  Activity: 314.5 g
[29]
  Activity: Active
[30]
  Ratio: 0.071
[31]
  Activity: Active
[32]
  Activity: 217.4 g
[33]
  Activity: 45.2%
[34]
  Activity: Active
[35]
  Activity: 181.3 g
[36]
  MIC: 0.004 µg/mL (≈ 0.00725 µM)
[37]
  Activity: 31.79%
